The text below walks through data of PMC10493395, “Optimization of a small molecule inhibitor of secondary nucleation in α-synuclein aggregation” (Frontiers in Molecular Biosciences, 2023).

The target in this assay is T1, α-synuclein (Homo sapiens, UniProt P37840).
T1 construct: gene SNCA; preformed fibrils of recombinant wild-type α-synuclein
The experiment in a line: fibril ultracentrifugation depletion with LC-MS of unbound compound in the supernatant, dose-response fit (second estimate […] by varying fibril concentration). The format is binding.

As to `O=C1NN(c2ccccc2)C(=O)C1=Cc1coc2ccc(Cl)cc2c1=O` [69.2, compound 69.2], the Kd is 6 ± 1 µM.
